Earlier results on one molecule are cited in US20080166423A1, “Combination Medication for Treating the Effects of Stomach Acid Reduction Medication on Bone Integrity” (priority 2007, published 2008).

The conditions of the data set: per day.

As to `CC(=O)Nc1ccc(O)cc1` [Acetaminophen], the “daily dosage with known liver toxicity” value is listed as above 4000 mg.
